As usually defined, the pIC50 is the negative decadic logarithm of the IC50, by convention in mol/L. The term solubility denotes the dissolved amount per volume that the medium holds.

In series [1] the target is T1, immunoproteasome subunit LMP7 (Homo sapiens, UniProt P28062).
T1 construct: Lysate from the human acute lymphoblastic leukemia cell line, MOLT-4; endogenous in cells; host or cells: MOLT-4
In words: Proteasome active-site ELISA (ProCISE), LMP7, MOLT-4 lysate. It is filed as biochemical. On the procedure:
(§1) Test compounds were serially diluted in DMSO at 100× concentration, then diluted to 10× in aqueous hypotonic lysis buffer. Lysate from the human acute lymphoblastic leukemia cell line, MOLT-4, was treated for 1 hour at 25° C. with compound at a final 1× concentration. […] Following, lysate was denatured in guanidine hydrochloride, and subunits bound to probe were isolated with streptavidin-conjugated sepharose beads. Individual subunits (e.g., β5, LMP7, LMP2, MECL-1) were probed with subunit-specific primary antibodies, followed by HRP-conjugated secondary antibodies. A chemiluminescent substrate was used to generate signal associated with HRP binding, which was detected on a plate reader. Luminescent signal was normalized to protein content, then, percent activity calculated relative to DMSO-treated controls to generate IC50 curves.
Background: In an ELISA, binding on a coated surface is turned into a signal by an enzyme label.

The nature of series [2]: Solubility pH 7. As to conditions: pH 7, aqueous buffer.
Series [3] addresses T2, proteasome subunit β5 (beta5) (Homo sapiens, UniProt P28074).
T2 construct: Lysate from the human acute lymphoblastic leukemia cell line, MOLT-4; endogenous in cells; host or cells: MOLT-4
In words: Proteasome active-site ELISA (ProCISE), beta5, MOLT-4 lysate. It is filed as biochemical. The note with it: MOLT4 lysate, human, 1 h continuous treatment, 25° C. On the procedure: as §1

Where [4] appears, read: MOLT4 lysate, 1 h continuous treatment, 25° C.

pIC50: −log10 of the molar value. Values after ≈ are worked out from the molar mass of the structure shown. Like-named read-outs stand apart in the source and are kept apart here.

With `COc1ccc(C[C@H](NC(=O)[C@H](C)NC(=O)CN2CCOCC2)C(=O)N[C@@H](CC2CCC2)C(=O)[C@@]2(C)CO2)cc1` [Compound C-1004, (S)-N-((S)-3-cyclobutyl-1-((R)-2-methyloxiran-2-yl)-1-oxopropan-2-yl)-3-(4-methoxyphenyl)-2-((S)-2-(2-morpholinoacetamido)propanamido)propanamide], the pIC50 in series [1] (setting [4]) is 6.27; in series [3], 5.73. In series [2], this compound gave a solubility of 2500 µg/mL (≈ 4.47 mM).
Turning to `COc1ccc(C[C@H](NC(=O)[C@H](C)NC(=O)CN2CCOCC2)C(=O)N[C@@H](CC2CC2)C(=O)[C@@]2(C)CO2)cc1` [Compound C-1006, (S)-N-((S)-3-cyclopropyl-1-((R)-2-methyloxiran-2-yl)-1-oxopropan-2-yl)-3-(4-methoxyphenyl)-2-((S)-2-(2-morpholinoacetamido)propanamido)propanamide], the pIC50 was 5.29 in series [1] (setting [4]) and 5.28 in series [3]. For the same compound, the solubility in series [2] was 2590 µg/mL (≈ 4.75 mM).
Regarding `COc1ccc(C[C@H](NC(=O)[C@H](C)NC(=O)CN2CCOCC2)C(=O)N[C@@H](C[C@H]2CCCO2)C(=O)[C@@]2(C)CO2)cc1` [Compound C-1017, (S)-3-(4-methoxyphenyl)-N-((S)-1-((R)-2-methyloxhan-2-yl)-1-oxo-3-((R)-tetrahydrofuran-2-yl)propan-2-yl)-2-((S)-2-(2-morpholinoacetamido)propanamido)propanamide], the pIC50 in series [1] (setting [4]) was 5.96; in series [3], 4.66. The solubility in series [2] came out at 11700 µg/mL (≈ 20.4 mM).
In the case of `COc1ccc(C[C@H](NC(=O)[C@H](C)NC(=O)CN2CCOCC2)C(=O)N[C@@H](CC2=CCCCC2)C(=O)[C@@]2(C)CO2)cc1` [Compound C-1019, (S)-N-((S)-3-(cyclohex-1-en-1-yl)-1-((R)-2-methyloxiran-2-yl)-1-oxopropan-2-yl)-3-(4-methoxyphenyl)-2-((S)-2-(2-morpholinoacetamido)propanamido)propanamide], in series [2], the concentration in solution (solubility) came to 1760 µg/mL (≈ 3.01 mM). Besides, the pIC50 in series [3] is 5.03.
Consider `COc1ccc(C[C@H](NC(=O)[C@H](C)NC(=O)CN2CCOCC2)C(=O)N[C@@H](CC2=CCOCC2)C(=O)[C@@]2(C)CO2)cc1` [Compound C-1020, (S)-N-((S)-3-(3,6-dihydro-2H-pyran-4-yl)-1-((R)-2-methyloxiran-2-yl)-1-oxopropan-2-yl)-3-(4-methoxyphenyl)-2-((S)-2-(2-morpholinoacetamido)propanamido)propanamide], for which the pIC50 is 5.93 in series [1] (setting [4]) and 4.35 in series [3]. In series [2], the solubility was 6440 µg/mL (≈ 11 mM).
In the case of `COc1ccc(C[C@H](NC(=O)[C@H](C)NC(=O)CN2CCOCC2)C(=O)N[C@@H](CC2=CCCC2)C(=O)[C@H]2CO2)cc1` [Compound C-1038, (S)-N-((S)-3-(cyclopent-1-en-1-yl)-1-((R)-oxiran-2-yl)-1-oxopropan-2-yl)-3-(4-methoxyphenyl)-2-((S)-2-(2-morpholinoacetamido)propanamido)propanamide], the pIC50 is 8.04 in series [1] (setting [4]) and 6.54 in series [3]. Besides, the solubility in series [2] was 230 µg/mL (≈ 0.414 mM).
In the case of `C[C@H](NC(=O)CN1CCOCC1)C(=O)N[C@@H](Cc1ccc2c(c1)OCO2)C(=O)N[C@@H](CC1CCCC1)C(=O)[C@H]1CO1` [Compound C-1060, (S)-3-(benzo[d][1,3]dioxol-5-yl)-N-((S)-3-cyclopentyl-1-((R)-oxiran-2-yl)-1-oxopropan-2-yl)-2-((S)-2-(2-morpholinoacetamido)propanamido)propanamide], the pIC50 in series [1] (setting [4]) was 7.91; in series [3] it was 6.37. The amount in solution in series [2] (solubility) came to 1380 µg/mL (≈ 2.4 mM).
On to `COc1ccc(C[C@H](NC(=O)[C@@H](C)NC(=O)[C@H]2CC[C@H](O)CC2)C(=O)N[C@@H](CC2CCCC2)C(=O)[C@@]2(C)CO2)cc1` [Compound C-1064, (1r,4R)-N-((R)-1-(((S)-1-(((S)-3-cyclopentyl-1-((R)-2-methyloxiran-2-yl)-1-oxopropan-2-yl)amino)-3-(4-methoxyphenyl)-1-oxopropan-2-yl)amino)-1-oxopropan-2-yl)-4-hydroxycyclohexanecarboxamide], for which the pIC50 in series [1] (setting [4]) was 7.22; in series [3] it was 5.39.
In the case of `COc1ccc(C[C@H](NC(=O)[C@@H](C)NC(=O)[C@H]2CC[C@H](O)CC2)C(=O)N[C@@H](CC2=CCCC2)C(=O)[C@@]2(C)CO2)cc1O` [Compound C-1065, (1r,4R)-N-((R)-1-(((S)-1-(((S)-3-(cyclopent-1-en-1-yl)-1-((R)-2-methyloxiran-2-yl)-1-oxopropan-2-yl)amino)-3-(3-hydroxy-4-methoxyphenyl)-1-oxopropan-2-yl)amino)-1-oxopropan-2-yl)-4-hydroxycyclohexanecarboxamide], the pIC50 in series [1] (setting [4]) is 7.46; in series [3], 5.83. This compound also gave a solubility in series [2] of 2660 µg/mL (≈ 4.55 mM).
The matching figures for `COc1ccc(C[C@H](NC(=O)[C@H](C)NC(=O)CN2CCOCC2)C(=O)N[C@@H](CC2CC=CC2)C(=O)[C@@]2(C)CO2)cc1` [Compound C-1066, (S)-N-((S)-3-(cyclopent-3-en-1-yl)-1-((R)-2-methyloxiran-2-yl)-1-oxopropan-2-yl)-3-(4-methoxyphenyl)-2-((S)-2-(2-morpholinoacetamido)propanamido)propanamide]: 7.33, 6.47 and 3200 µg/mL (≈ 5.6 mM).
The matching figures for `C[C@H](NC(=O)CN1CCOCC1)C(=O)N[C@@H](Cc1ccc2[nH]ncc2c1)C(=O)N[C@@H](CC1CCCC1)C(=O)[C@@]1(C)CO1` [Compound C-1070, (S)-N-((S)-3-cyclopentyl-1-((R)-2-methyloxiran-2-yl)-1-oxopropan-2-yl)-3-(1H-indazol-5-yl)-2-((S)-2-(2-morpholinoacetamido)propanamido)propanamide]: 6.68, 5.74 and 2140 µg/mL (≈ 3.67 mM).
For the compound `COc1ccc(C[C@H](NC(=O)[C@H](C)NC(=O)CN2CCOCC2)C(=O)N[C@@H](CC2CCCC2)C(=O)[C@H]2CO2)cc1OC` [Compound C-1071, (S)-N-((S)-3-cyclopentyl-1-((R)-oxiran-2-yl)-1-oxopropan-2-yl)-3-(3,4-dimethoxyphenyl)-2-((S)-2-(2-morpholinoacetamido)propanamido)propanamide], the pIC50 in series [1] (setting [4]) was 6.98; in series [3], 5.41. In series [2], this compound returned a solubility of 4300 µg/mL (≈ 7.3 mM).
With `COc1ccc([C@@H](O)[C@H](NC(=O)[C@@H](C)NC(=O)[C@H]2CC[C@H](O)CC2)C(=O)N[C@@H](CC2=CCCC2)C(=O)[C@@]2(C)CO2)cc1` [Compound C-1080, (1r,4R)-N-((R)-1-(((2S,3R)-1-(((S)-3-(cyclopent-1-en-1-yl)-1-((R)-2-methyloxiran-2-yl)-1-oxopropan-2-yl)amino)-3-hydroxy-3-(4-methoxyphenyl)-1-oxopropan-2-yl)amino)-1-oxopropan-2-yl)-4-hydroxycyclohexanecarboxamide], the pIC50 in series [1] (setting [4]) was 7.60; in series [3], 5.93.
Regarding `COc1ccc(C[C@H](NC(=O)[C@@H](COCc2ccccc2)NC(=O)CN2CCOCC2)C(=O)N[C@@H](Cc2ccccc2)C(=O)[C@@]2(C)CO2)cc1` [Compound C-1156], the pIC50 in series [1] (read-out: ProCISE LMP7 MOLT4 lysate Hu 1 h CONT: IC50, 1 h continuous treatment, 25° C.) is 7.29; in series [3] (read-out: ProCISE beta5 MOLT4 lysate Hu 1 h CONT: IC50) it was 6.76.
In series [2], `COc1ccc(C[C@H](NC(=O)[C@H](C)NC(=O)C2COC2)C(=O)N[C@@H](Cc2ccccc2)C(=O)[C@@]2(C)CO2)cc1` [Compound C-1168] showed a solubility of 213 µg/mL (≈ 0.396 mM).
Compound `COc1ccc(C[C@H](NC(=O)[C@H](C)NC(=O)C2CN(C)C2)C(=O)N[C@@H](Cc2ccccc2)C(=O)[C@@]2(C)CO2)cc1` [Compound C-1172, N-((S)-1-(((S)-3-(4-methoxyphenyl)-1-(((S)-1-((R)-2-methyloxiran-2-yl)-1-oxo-3-phenylpropan-2-yl)amino)-1-oxopropan-2-yl)amino)-1-oxopropan-2-yl)-1-methylazetidine-3-carboxamide] had a solubility in series [2] of 1900 µg/mL (≈ 3.46 mM).
In turn, `COc1ccc(C[C@H](NC(=O)C(C)NC(=O)CN2CCOCC2)C(=O)N[C@H](C(=O)[C@@]2(C)CO2)c2ccccc2)cc1` (some centres unmarked) [Compound C-1176] registered a solubility in series [2] of 1890 µg/mL (≈ 3.34 mM).
Regarding `C[C@H](NC(=O)CN1CCOCC1)C(=O)N[C@@H](CC1CC1)C(=O)N[C@@H](Cc1ccccc1)C(=O)[C@@]1(C)CO1` [Compound C-1224, (S)-3-cyclopropyl-N-((S)-1-((R)-2-methyloxiran-2-yl)-1-oxo-3-phenylpropan-2-yl)-2-((S)-2-(2-morpholinoacetamido)propanamido)propanamide], in series [2], the solubility stood at 257 µg/mL (≈ 0.5 mM). Against the preceding compound, the solubility is about 7.4-fold lower.
The same measure, in the same setting: next, `COc1ccc(C[C@H](NC(=O)[C@H](C)NC(=O)CN2CCOCC2)C(=O)N[C@@H](CC(F)(F)F)C(=O)[C@@]2(C)CO2)cc1` [Compound C-1226]: 3820 µg/mL (≈ 6.67 mM); `CC#CC[C@H](NC(=O)[C@H](Cc1ccc(OC)cc1)NC(=O)[C@H](C)NC(=O)CN1CCOCC1)C(=O)[C@@]1(C)CO1` [Compound C-1228]: 682 µg/mL (≈ 1.26 mM).

These data come from patent USRE47302E1 (ONYX THERAPEUTICS INC., priority 2013, dated 2019).
